Patent US11884747B2, “Compstatin analogs with increased solubility and improved pharmacokinetic properties” (The Trustees of the University of Pennsylvania, priority 2018, dated 2024)

Key:
[1] = test system: classical pathway of complement; test: Classical pathway complement inhibition ELISA (C3b deposition) in normal human plasma; type: biochemical; conditions: human plasma diluted 1:40; mean of at least three experiments
Method: For this purpose, microtiter wells (NUNC) were coated with 50 μl of 1% ovalbumin in PBS (pH 7.4) at ambient temperature for 2 h. The wells were blocked with 200 μl of 1% BSA in PBS for 1 h, then coated with 50 μl of 1:1000 α-ovalbumin polyclonal antibody in PBS for 1 h. Between each step, the plate was washed thrice with 200 μl of 0.05% Tween 20 in PBS (PBS-T); 30 μl of VBS (Veronal buffer 1×; 5 mM veronal, pH 7.4, containing 150 mM NaCl, 0.5 mM CaCl2 and 0.5 mM MgCl2) were placed in all but the first well of each row of the 96-well plate, and 5 μM peptide solutions in VBS were prepared. […] Human plasma diluted 1:40 in VBS was incubated for 15 min with peptide of 0.005 to 2.5 μM. After washing with PBS-T, 50 μl/well of 1:1000 goat a-human C3 HRP conjugated antibody in 1% BSA in PBS was added to the wells and incubated for 1 h at room temperature. Complement fixation indicating activation was detected by the addition of HRP substrate (0.05% ABTS and 0.1% of 30% aqueous H2O2 in 0.1 M sodium citrate, pH 4.2) and read at 405 nm. The absorbance data obtained at 405 nm were translated into % inhibition, considering 100% to be equal to complement activation in the absence of peptide. The percent inhibition was plotted against the logarithm of concentrations, and the resulting data set was fitted to the equation “log(inhibitor) vs. normalized response” using GraphPad Prism 5 (La Jolla, CA). IC50 values were obtained from the fitted parameters of the mean of at least three independent experiments. Cp40 was always used as the internal control.

[2] = test system: complement classical pathway; test: Classical pathway activation (C3b deposition) ELISA in human plasma with or without rabbit vitreous; type: biochemical; conditions: in the absence of vitreous
Method: An alternative explanation to the one presented above is that the vitreous contains additional unidentified factors that associate with the Cp40-KKK analog. To investigate whether an unidentified vitreous factor impacts the complement inhibitory activity of lysine containing compounds, complement activation assays were performed using vitreous samples. Briefly, human plasma was incubated with OVA-anti-OVA immune-complexes in the presence of serial dilutions of the Cp40-based analogs mixed with rabbit vitreous. Levels of classical pathway activation (C3b deposition) were determined by ELISA using a polyclonal anti-human C3 antibody conjugated with HRP (MP Biomedicals, Solon, OH) (FIG. 20).

[3] = Pharmacokinetics after single i.v. injection; type: in vivo, cynomolgus monkeys
Method: FIG. 11 show graphs of peptide concentration over time in cynomolgus monkeys to which was administered a single 2 mg/kg intravenous injection of Cp40-KK (panel a), Cp40-KKK (panel b), mPEG(1 k)-Cp40 (panel c), and mPEG(3 k)-Cp40 (panel d). […]
In vivo pharmacokinetic studies were conducted, in which cynomolgus monkeys were administered single i.v. injections of mPEG(1 k)-Cp40, mPEG(3 k)-Cp40, Cp40-KK, or Cp40-KKK.

AUC(0-t) ([3]; cynomolgus monkey, plasma, iv, 2 mg/kg, single i.v. injection, read-out: AUC0-120h): 304 to 312 µM·h
AUC0-120 h greater than Cp40-KK ([3]; single i.v. injection): over 3.5 fold
Structure (SMILES): CC[C@H](C)[C@H](NC(=O)[C@H](N)Cc1ccc(O)cc1)C(=O)N[C@H]1CSSC[C@@H](C(=O)N(C)[C@H](C(=O)N[C@@H](CCCCN)C(=O)N[C@@H](CCCCN)C(=O)N[C@@H](CCCCN)C(N)=O)[C@@H](C)CC)NC(=O)[C@H](CCCNC(=N)N)NC(=O)[C@H](Cc2c[nH]cn2)NC(=O)[C@H](C)NC(=O)CN(C)C(=O)[C@H](Cc2c[nH]c3ccccc23)NC(=O)[C@H](CC(=O)O)NC(=O)[C@H](CCC(N)=O)NC(=O)[C@H](Cc2cn(C)c3ccccc23)NC(=O)[C@H](C(C)C)NC1=O [Cp40-KKK, DTyr-Ile-[Cys-Val-Trp(Me)-Gln-Asp-Trp-Sar-Ala-His-Arg-Cys]-mlle-Lys-Lys-Lys—NH2]
IC50 [1]: 81.7 ± 5.3 nM
complement classical pathway inhibitory activity [2]: inhibitory activity in a dose-dependent manner
in vivo Lys cleavage in plasma ([3]; after i.v. injection): metabolized into Cp40-KK and small amounts of Cp40-K
